Experimental findings from patent US20230092495A1, “SOLID FORMS OF TEZACAFTOR AND PROCESSES FOR THE PREPARATION THEREOF” (QUÍMICA SINTÉTICA, S.A., priority 2020, published 2023) are described below.

Data set [1] is described as follows: Stability of amorphous tezacaftor, polymorphic stability by XRPD. The class given is physicochemical. From the text: (§1) Unless otherwise indicated, in the context of the present invention a range of values indicated for a certain parameter, for example the weight of a component in a mixture, includes the upper and the lower limits of the range, e.g. if the content in weight, or in volume, of a component A in a mixture is indicated as “X to Y”, the content of A can be X, Y or any of the intermediate values. By “polymorphically stable” it is meant that the crystalline form B and the amorphous form of the present invention, when stored (I) at 70° C. under reduced pressure for at least 1 hour (preferably for 5 hours, more preferably for 10 hours, even more preferably for 12 hours), (II) at 60° C. for at least 1 day (preferably for 5 days, more preferably for 10 days, even more preferably for 15 days), (III) at 40° C. and 75% RH for at least 1 day (preferably for 5 days, more preferably for 10 days, even more preferably for 15 days), and/or (IV) at 25-30° C. and 80% RH for at least 1 day (preferably for 5 days, more preferably for 10 days, even more preferably for 15 days), show no signs of transformation into a different crystalline tezacaftor (e.g. Form A) as evaluated by the absence of peaks in an X-ray powder diffractogram (XRPD).
(§2) XRPD analyses were performed at 20-30° C. by means of a theta/theta vertical scan Bruker AXS D8 Advance high-performance diffractometer. The instrument was equipped with a Cu-Kα X-ray tube operating at 40 kV/40 mA and generating radiation having λ=1.5418 Å. The detector was a linear Lynxeye XE-T position sensitive set at 250 mm from the sample. Powder samples were deposited in the 20 mm×0.5 mm hollow of the sample holder, consisting of a quartz monocrystal zero background plate. A mild grinding of the sample in an agate mortar may be needed to obtain a suitable fine powder. Diffraction data were collected applying the following conditions: angular range 2-40° 2-theta, 0.02°/step scan and 1 second acquisition time. The instrument calibration was verified by means of a NIST SRM 1976b. Data acquisition was performed by means of Bruker Diffraction Measurement Center software. Data elaboration was performed by means of Crystal Impact Match!.
The amorphous tezacaftor, prepared as described in Examples 3 to 5, was maintained at 70° C. under a reduced pressure for 12 hours.
The amorphous tezacaftor, prepared as described in Examples 3 to 5, was maintained, in a closed vial, at 60° C. for 15 days.
The amorphous tezacaftor, prepared as described in Examples 3 to 5, was maintained, in an open vial, at 40° C. and 75% RH for 15 days.
The amorphous tezacaftor, prepared as described in Examples 3 to 5, was maintained, in an open vial, at 25-30° C. and 80% RH for 15 days.

A short description of data set [2]: Stressed stability of crystalline tezacaftor form B, polymorphic stability by XRPD. The note with it: 4 weeks. It counts as physicochemical.
Text: as §1
as §2, with “Data acquisition was performed by means of Bruker Diffraction Measurement Center software. Data elaboration was performed by means of Crystal Impact Match!.” left out

For `CC(C)(CO)c1cc2cc(NC(=O)C3(c4ccc5c(c4)OC(F)(F)O5)CC3)c(F)cc2n1C[C@@H](O)CO` [amorphous tezacaftor, (R)-1-(2,2-difluorobenzo[d][1,3]dioxol-5-yl)-N-(1-(2,3-dihydroxypropyl)-6-fluoro-2-(1-hydroxy-2-methylpropan-2-yl)-1H-indol-5-yl)cyclopropane-1-carboxamide], the “XRPD analysis after storage (polymorphic stability)” value is on record as “XRPD spectrum corresponding to the one obtained in example 3” in data set [1] (25-30° C. and 80% RH, open vial, 15 days); “XRPD spectrum corresponding to the one obtained in example 3” in data set [1] (40° C. and 75% RH, open vial, 15 days); “XRPD spectrum corresponding to the one obtained in example 3” in data set [1] (60° C., closed vial, 15 days); “XRPD spectrum corresponding to the one obtained in example 3” in data set [1] (70° C. under reduced pressure, 12 hours).

`CC(C)(CO)c1cc2cc(NC(=O)C3(c4ccc5c(c4)OC(F)(F)O5)CC3)c(F)cc2n1C[C@@H](O)CO` [crystalline tezacaftor, (R)-1-(2,2-difluorobenzo[d][1,3]dioxol-5-yl)-N-(1-(2,3-dihydroxypropyl)-6-fluoro-2-(1-hydroxy-2-methylpropan-2-yl)-1H-indol-5-yl)cyclopropane-1-carboxamide]: the “XRPD analysis after storage (polymorphic stability)” value in data set [2] (20-25° C., 80% relative humidity, open vial) is given as “XRPD diffractogram corresponding to the one obtained in example 1”; in data set [2] (40° C. and 75% RH, open vial), “XRPD diffractogram corresponding to that obtained in example 1”; in data set [2] (60° C., closed vial) it was “XRPD diffractogram corresponded to that obtained from the sample of example 1”.
